# Test results published in patent publication US10253002B2, “Compounds and methods of treating infections” (Neoculi Pty Ltd., priority 2013, dated 2019).
# Where two headings read alike, the source gives them in different places.
# What was measured:
# S. pneumoniae isolates = experiment: Disk diffusion susceptibility (CLSI/EUCAST), Example 5; assay type: cell-based, Streptococcus pneumoniae
# In short: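 Susceptibility to 12 antimicrobials was categorised (S/I/R) using CLSI breakpoints from zones of complete inhibition, read thrice to the nearest millimetre with the mode taken. Incubation was 16–24 h, 37 °C, 5% CO2.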
# S. pneumoniae strain D39 [1] = experiment: microbe, parasite or virus in culture; assay type: cell-based; settings: Streptococcus pneumoniae
# Experimental: Macro-broth dilutions were prepared as above. […] Samples were centrifuged at a relative centrifugal force (RCF) of 101.45×g for 10 min and washed in 50 mL of phosphate buffered saline (PBS) twice to remove any residual antimicrobial, and/or bacterial end products and media. Washed bacteria were resuspended and MICs were performed.
# [2] = tested on: protein synthesis in S. aureus ATCC 29213; experiment: Macromolecular synthesis assay: protein synthesis ([3H] leucine); assay type: cell-based, Staphylococcus aureus; settings: at the MIC
# Experimental: Cells were grown at 35° C. overnight on Trypticase Soy agar. A colony from the plate was used to inoculate 10 ml of Mueller Hinton broth II (MHBII), and the culture was grown to early exponential growth phase (OD600==0.2 to 0.3) while incubating in a shaker at 35° C. and 200 rpm.
# When cells reached early exponential phase, 100 μL of culture was added to triplicate wells containing various concentrations of test compound or control antibiotics (5 μL) at 20× the final concentration in 100% DMSO. A 5% DMSO treated culture served as the “no drug” control for all experiments. Cells were added in MHBII at 105% to account for the volume of drug added to each reaction or in M9 minimal medium for protein synthesis reactions. Following 15 min incubation at room temperature, either [^3H] thymidine (DNA synthesis), [^3H] uridine (RNA synthesis) or [^3H] leucine (protein synthesis) was added at 0.5-1.0 μCi per reaction, depending on the experiment. Reactions were allowed to proceed at room temperature for 15-30 min and then stopped by adding 12 μL of cold 5% trichloroacetic acid (TCA) or 5% TCA/2% casamino acids (protein synthesis only). […] After washing three times with 5 ml of cold 5% TCA, the filters were rinsed two times with 5 mL 100% ethanol, allowed to dry, and then counted using a Beckman LS3801 liquid scintillation counter.
# S. pneumoniae strain D39 [3] = experiment: Micro-broth dilution time kill studies; assay type: cell-based, Streptococcus pneumoniae; settings: D39 treated with 54 μg/mL NCL812
# S. pneumoniae strain D39 [4] = experiment: MBC time kill studies (relative MBC at time points); assay type: cell-based, Streptococcus pneumoniae; settings: within 5 h
# Source text: MBC kill kinetics assays involved the preparation of three 96 well microtitre trays.
# MRSA = experiment: Kill kinetics assay, Example 7; assay type: cell-based, Staphylococcus aureus
# Experimental: MRSA/VRE were grown overnight on Columbia SBA at 37° C. A few colonies of bacteria were then suspended in CAMHB and adjusted to an optical density of 0.08 to 0.10. The bacterial suspension was diluted 1:10. […] The tubes were incubated at 37° C. In order to determine the number of viable bacteria present at various time points, a 100 μL aliquot was removed from each tube and diluted in normal saline. Then, 100 μL of each dilution was spread onto colony count agar, in duplicate, and incubated for 48 h at 37° C. After 24 h the numbers of colonies present on each plate were counted and therefore the number of viable bacteria present in the original suspension enumerated. Plates were re-checked after 48 hours.
compound,measurement,setting,value
CC1(C)S[C@@H]2[C@H](NC(=O)[C@H](N)c3ccccc3)C(=O)N2[C@H]1C(=O)O [Ampicillin],disk diffusion zone diameter,S. pneumoniae isolates; A66.1,37 mm
same,disk diffusion zone diameter,S. pneumoniae isolates; D39,37 mm
same,disk diffusion zone diameter,S. pneumoniae isolates; EF3030,38 mm
same,disk diffusion zone diameter,S. pneumoniae isolates; L82016,41 mm
same,disk diffusion zone diameter,S. pneumoniae isolates; P9,33 mm
same,disk diffusion zone diameter,S. pneumoniae isolates; P21,40 mm
same,disk diffusion zone diameter,S. pneumoniae isolates; TIGR4,37 mm
same,disk diffusion zone diameter,S. pneumoniae isolates; WCH16,41 mm
same,disk diffusion zone diameter,S. pneumoniae isolates; WCH43,36 mm
same,disk diffusion zone diameter,S. pneumoniae isolates; WCH46,37 mm
same,disk diffusion zone diameter,S. pneumoniae isolates; WCH57,43 mm
same,disk diffusion zone diameter,S. pneumoniae isolates; WCH77,43 mm
same,disk diffusion zone diameter,S. pneumoniae isolates; WCH86,38 mm
same,disk diffusion zone diameter,S. pneumoniae isolates; WCH89,38 mm
same,disk diffusion zone diameter,S. pneumoniae isolates; WCH92,38 mm
same,disk diffusion zone diameter,S. pneumoniae isolates; WCH137,40 mm
same,disk diffusion zone diameter,S. pneumoniae isolates; WCH158,42 mm
same,disk diffusion zone diameter,S. pneumoniae isolates; WCH184,33 mm
same,disk diffusion zone diameter,S. pneumoniae isolates; WCH211,39 mm
same,disk diffusion zone diameter,S. pneumoniae isolates; WU2,38 mm
same,Resistance status to Ampicillin,S. pneumoniae isolates; isolate A66.1,Sensitive
same,Resistance status to Ampicillin,S. pneumoniae isolates; isolate D39,Sensitive
same,Resistance status to Ampicillin,S. pneumoniae isolates; isolate P21,Sensitive
same,Resistance status to Ampicillin,S. pneumoniae isolates; isolate WCH57,Sensitive
same,Resistance status to Ampicillin,S. pneumoniae isolates; isolate WCH158,Sensitive
same,Resistance status to Ampicillin,S. pneumoniae isolates; isolate WU-2,Sensitive
same,MBC,"S. pneumoniae strain D39 [1]; D39, 6 h, read-out: MBC of D39 following exposure to NCL-812 for 6 hrs",0.023 µg/mL
same,MIC,"S. pneumoniae strain D39 [1]; D39, 6 h, read-out: MIC of D39 following exposure to NCL-812 for 6 hrs.",0.045 µg/mL
same,MBC,"S. pneumoniae strain D39 [1]; D39, read-out: Original MBC of D39",0.023 µg/mL
same,MIC,"S. pneumoniae strain D39 [1]; D39, read-out: Original MIC of D39",0.023 µg/mL
"N=C(N/N=C/c1ccc(Cl)cc1)N/N=C/c1ccc(Cl)cc1 [NCL812, 1,3-bis[(E)-(4-chlorophenyl)methyleneamino]guanidine]",inhibition of protein synthesis,[2],up to 97%
same,time at which treated D39 entered a log phase of growth,S. pneumoniae strain D39 [3],6 h
same,decrease in MBC,S. pneumoniae strain D39 [4],~3 fold
same,numbers of bacteria versus control,"MRSA; after 24 h, all NCL812 concentrations",not significantly different to the control
same,reduction in comparison to the growth control,MRSA; at 4 h,at least 2.5 log10 CFU/mL
same,difference between the control and bacteria exposed to NCL812,MRSA; at 8 h,≥ 3.5 log10 CFU/mL
